Measured values reported in patent publication US20240261418A1, “SOS1 DEGRADING AGENT AND PREPARATION METHOD THEREFOR AND APPLICATION THEREOF” (SHANGHAI LEADINGTAC PHARMACEUTICAL CO. LTD., priority 2021, published 2024).

Target: T1, SOS1 protein (Homo sapiens, UniProt Q07889)
T1 sequence (Q07889 1-1333): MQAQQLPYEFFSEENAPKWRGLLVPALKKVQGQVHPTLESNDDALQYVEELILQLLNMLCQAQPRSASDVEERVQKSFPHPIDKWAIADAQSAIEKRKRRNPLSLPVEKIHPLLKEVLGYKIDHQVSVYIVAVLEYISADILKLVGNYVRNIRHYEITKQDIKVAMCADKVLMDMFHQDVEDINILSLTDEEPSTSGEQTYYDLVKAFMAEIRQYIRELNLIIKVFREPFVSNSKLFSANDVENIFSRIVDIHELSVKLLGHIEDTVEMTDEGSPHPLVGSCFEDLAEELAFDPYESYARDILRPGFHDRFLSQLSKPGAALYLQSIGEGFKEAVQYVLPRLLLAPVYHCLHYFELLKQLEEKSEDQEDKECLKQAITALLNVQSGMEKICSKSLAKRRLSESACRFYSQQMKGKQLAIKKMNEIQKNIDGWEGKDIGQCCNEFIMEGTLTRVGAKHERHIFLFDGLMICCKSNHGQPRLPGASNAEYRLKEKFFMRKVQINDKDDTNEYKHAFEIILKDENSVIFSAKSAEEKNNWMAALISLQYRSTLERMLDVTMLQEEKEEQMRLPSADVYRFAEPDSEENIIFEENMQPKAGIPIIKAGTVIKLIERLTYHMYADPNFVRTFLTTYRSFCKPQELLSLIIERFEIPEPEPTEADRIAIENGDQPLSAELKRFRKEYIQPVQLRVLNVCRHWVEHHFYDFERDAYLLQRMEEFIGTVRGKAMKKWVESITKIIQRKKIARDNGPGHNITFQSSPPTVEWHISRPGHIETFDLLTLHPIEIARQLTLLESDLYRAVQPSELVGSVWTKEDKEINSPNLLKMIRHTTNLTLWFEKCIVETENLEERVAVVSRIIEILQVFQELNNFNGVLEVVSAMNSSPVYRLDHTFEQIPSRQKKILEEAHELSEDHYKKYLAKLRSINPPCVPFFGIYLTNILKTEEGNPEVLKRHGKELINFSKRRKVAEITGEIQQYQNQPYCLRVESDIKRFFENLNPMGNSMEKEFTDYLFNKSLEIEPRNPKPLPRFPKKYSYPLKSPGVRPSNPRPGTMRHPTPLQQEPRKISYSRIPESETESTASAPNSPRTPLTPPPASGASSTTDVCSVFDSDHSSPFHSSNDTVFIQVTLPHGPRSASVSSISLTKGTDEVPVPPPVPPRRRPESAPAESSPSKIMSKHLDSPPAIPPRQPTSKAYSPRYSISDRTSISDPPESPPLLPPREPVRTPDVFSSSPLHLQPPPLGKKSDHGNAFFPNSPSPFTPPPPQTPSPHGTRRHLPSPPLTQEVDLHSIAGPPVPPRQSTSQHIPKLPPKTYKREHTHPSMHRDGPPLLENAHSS
Experiment: SOS1 degradation assay (Western blot) in SW-620 cells
Format: cell-based
Design: host or cells: NCI-H358, A-427, SW-620, DLD-1 (human cancer cell lines)
Conditions: SW-620 (KRAS G12V), 24 h; for DC50: read-out: SW620 (G12V) DC50; for Dmax: read-out: SW620 (G12V) Dmax
Procedure: Test Example 2: SOS1 Degradation Assay
The degradation of SOS1 by the compounds was investigated on KRAS G12C mutant human non-small cell lung cancer cells NCI-H358 (ATCC or Stem Cell Bank, Chinese Academy of Sciences), KRAS G12D mutant human lung cancer cells A-427 (ATCC), KRAS G12V mutant human colorectal adenocarcinoma cells SW-620 (ATCC), and KRAS G13D mutant human colorectal adenocarcinoma epithelial cells DLD-1 (ATCC). The specific procedures were as follows:
0.95 mL of cells were seeded into each well of a 24-well cell culture plate to achieve a cell density of 5×10^5 cells/well; the cell plate was incubated in an incubator at 37° C. with 5% CO2 overnight. Then 50 μL of the compound solution after dilution was added to each of the wells with the corresponding cells, so that the final concentration of the compound was in a range of 0.03-3000 nM. The final concentration of DMSO was 0.25%.
After dosing, the cell plate was incubated in an incubator at 37° C. with 5% CO2 for 24 h. The cell culture medium in the 24-well plate was removed, and the plate was washed twice with 1×PBS. 180 μL of RIPA (strong) lysis buffer (Beyotime, P0013B) supplemented with 1 mM phenylmethylsulfonyl fluoride, a protease inhibitor mixture (Beyotime, P1008), and a protease phosphatase inhibitor mixture (Beyotime, P1045) was added to lyse adherent NCI-H358 cells at the bottom of the cell culture plate. After the plate was left to stand on ice for 30 min, the protein lysate in each well was transferred to a 1.5 mL centrifuge tube and centrifuged at 15000 g for 20 min at 4° C. […] The concentration of total protein in the cell lysate supernatant was determined using the BCA Protein Quantification Kit (Tiangen, PA115-02). […]
The concentration of total protein in the cell lysate was determined by BCA. […] After the blocking, the PVDF membrane was incubated with an SOS1 primary antibody (Abcam, ab140621) at 4° C. overnight, washed with a TBST buffer (2.4 g of Tris, 8.8 g of NaCl, 1.5 mL of Tween 20, with pH adjusted to 7.4, with the volume brought to 1 L) for 30 min (10 min/time), incubated with a secondary antibody (Abcam, ab205718) at room temperature for 2 h, washed with a TBST buffer for 30 min (10 min/time), and finally incubated with Clarity Western ECL Substrate (BIO-RAD, 170-5061) for 5 min for luminescence and color development, and a chemiluminescence imaging system (Clinx, ChemiScope 6200 Touch) was used for color development and protein mapping. […] The gray correction value for each sample was calculated by the formula: gray correction value=(gray value of target protein/gray value of corresponding internal reference)×103. Then the degradation rate was calculated by comparing the gray correction value with the gray correction value of the control group. […]

DC50 [nM] | Dmax [%] | SMILES
≤ 50 | 80 to 100 | COc1cc2nc(C)nc(N[C@H](C)c3cc(-c4c(Cl)cccc4CN(C)C)cs3)c2cc1[C@H]1CC[C@H](C(=O)N2CCN(CC3CCC4(CC3)CCN(C(=O)c3ccc(Cl)c(N5CCC(=O)NC5=O)c3)CC4)CC2)CC1 [Example 1, 1-(2-chloro-5-(9-((4-((1R,4R)-4-(4-(((R)-1-(4-(2-chloro-6-((dimethylamino)methyl)phenyl)thien-2-yl)ethyl)amino)-7-methoxy-2-methylquinazolin-6-yl)cyclohexane-1-carbonyl)piperazin-1-yl)methyl)-3-azaspiro[5.5]undecane-3-carbonyl)phenyl)dihydropyrimidine-2,4(1H,3H)-dione]
≤ 50 | 80 to 100 | COc1cc2nc(C)nc(N[C@H](C)c3cc(-c4c(Cl)cccc4CN(C)C)cs3)c2cc1[C@H]1CC[C@H](C(=O)N2CCC(CCOCC3CCN(C(=O)c4ccc(Cl)c(N5CCC(=O)NC5=O)c4)CC3)CC2)CC1 [Example 5, 1-(2-chloro-5-(4-((2-(1-((1R,4R)-4-(4-(((R)-1-(4-(2-chloro-6-((dimethylamino)methyl)phenyl)thien-2-yl)ethyl)amino)-7-methoxy-2-methylquinazolin-6-yl)cyclohexane-1-carbonyl)piperidin-4-yl)ethoxy)methyl)piperidine-1-carbonyl)phenyl)dihydropyrimidine-2,4(1H,3H)-dione]
